Read-outs that look alike come from different tables or passages of the source.
Tests used:
μ-opioid receptor [1] = target: T1, μ-opioid receptor (Homo sapiens, UniProt P35372); assay: μ-opioid receptor radioligand dose-displacement binding assay
Experimental: Radioligand dose-displacement binding assays for μ-opioid receptors used 0.3 nM [^3H]-diprenorphine (Perkin Elmer, Shelton, Conn.), with […] membrane protein/well in a final volume of […] binding buffer (10 mM MgCl2, 1 mM EDTA, 5% DMSO, 50 mM HEPES, pH 7.4). Reactions were carried out in the absence or presence of increasing concentrations of unlabeled naloxone. All reactions were conducted in 96-deep well polypropylene plates for 2 hr at room temperature. […] The data were analyzed using the one-site competition curve fitting functions in GraphPad PRISM™ v. 3.0 or higher (San Diego, Calif.), or an in-house function for one-site competition curve-fitting.
Target sequence in this assay (P35372 whole entry): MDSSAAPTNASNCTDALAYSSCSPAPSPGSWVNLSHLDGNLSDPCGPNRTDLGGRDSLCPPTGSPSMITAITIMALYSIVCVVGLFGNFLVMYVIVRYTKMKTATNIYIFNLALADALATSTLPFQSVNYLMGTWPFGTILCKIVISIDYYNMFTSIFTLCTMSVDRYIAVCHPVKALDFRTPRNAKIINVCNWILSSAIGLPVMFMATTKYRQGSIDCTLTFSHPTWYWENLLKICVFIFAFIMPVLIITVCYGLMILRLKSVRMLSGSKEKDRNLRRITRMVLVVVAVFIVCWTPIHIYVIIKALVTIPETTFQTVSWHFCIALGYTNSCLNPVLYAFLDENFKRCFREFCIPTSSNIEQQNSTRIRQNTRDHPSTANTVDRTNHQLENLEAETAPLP

κ opioid receptor [2] = target: T2, κ opioid receptor (Homo sapiens, UniProt P41145); assay: κ-opioid receptor [35S]GTPγS functional assay; format: biochemical; design: expressed in transfected cells; conditions: for Emax: relative to the effect elicited by U69,593
T2 sequence (P41145 whole entry): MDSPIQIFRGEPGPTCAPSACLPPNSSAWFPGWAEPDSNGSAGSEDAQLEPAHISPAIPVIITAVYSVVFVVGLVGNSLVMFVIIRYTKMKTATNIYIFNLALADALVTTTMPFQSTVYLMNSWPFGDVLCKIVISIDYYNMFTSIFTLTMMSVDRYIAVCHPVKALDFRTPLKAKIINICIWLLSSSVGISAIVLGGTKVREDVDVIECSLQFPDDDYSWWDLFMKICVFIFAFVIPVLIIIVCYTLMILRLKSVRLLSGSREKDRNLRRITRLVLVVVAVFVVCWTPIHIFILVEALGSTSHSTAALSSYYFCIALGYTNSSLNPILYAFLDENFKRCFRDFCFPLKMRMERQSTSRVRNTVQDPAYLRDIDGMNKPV
Experimental: Functional [^35S]GTPγS binding assays were conducted as follows. κ opioid receptor membrane solution was prepared by sequentially adding final concentrations of 0.026 μg/μl κ membrane protein (in-house), 10 μg/mL saponin, 3 μM GDP and 0.20 nM [^35S]GTPγS to binding buffer (100 mM NaCl, 10 mM MgCl2, 20 mM HEPES, pH 7.4) on ice. The prepared membrane solution (190 μl/well) was transferred to 96-shallow well polypropylene plates containing 10 μl of 20× concentrated stock solutions of agonist prepared in DMSO. Plates were incubated for 30 min at a temperature of about 25° C. with shaking.
κ GTP EC50 is the concentration of a compound providing 50% of the maximal response for the compound at a κ receptor.
κ GTP Emax (%) is the maximal effect elicited by a compound relative to the effect elicited by U69,593.

μ-opioid receptor [3] = target: T1, μ-opioid receptor; assay: μ-opioid receptor [35S]GTPγS functional assay; format: biochemical; design: purchased Perkin Elmer, Shelton, Conn; conditions: for Emax: relative to the effect elicited by DAMGO
Experimental: [^35S]GTPγS functional assays were conducted using freshly thawed μ-receptor membranes (Perkin Elmer, Shelton, Conn.). Assay reactions were prepared by sequentially adding the following reagents to binding buffer (100 mM NaCl, 10 mM MgCl2, 20 mM HEPES, pH 7.4) on ice (final concentrations indicated): membrane protein (0.026 mg/mL), saponin ([…]), GDP ([…]) and [^35S]GTPγS (0.20 nM; Perkin Elmer, Shelton, Conn.). The prepared membrane solution (190 μl/well) was transferred to 96-shallow well polypropylene plates containing 10 μI of 20× concentrated stock solutions of the agonist [D-Ala^e, N-methyl-Phe^4 Gly-ol^5]-enkephalin (DAMGO) prepared in dimethyl sulfoxide (DMSO). Plates were incubated for 30 min at about 25° C. with shaking. […] Data were analyzed using the sigmoidal dose-response curve fitting functions in GraphPad PRISM v. 3.0, or an in-house function for non-linear, sigmoidal dose-response curve-fitting.
μ GTP EC50 is the concentration of a compound providing 50% of the maximal response for the compound at a μ-opioid receptor.
μ GTP Emax (%) is the maximal effect elicited by a compound relative to the effect elicited by DAMGO, a standard μ agonist. Generally, the μ GTP Emax (%) value measures the efficacy of a compound to treat or prevent pain or other Conditions.
Target sequence in this assay (P35372 whole entry, species assumed): as the sequence (P35372 whole entry) above

κ opioid receptor [4] = target: T2, κ opioid receptor; assay: κ-opioid receptor radioligand dose displacement binding assay; design: expressed in transfected cells; host or cells: HEK-293
Experimental: Membranes from recombinant HEK-293 cells expressing the human κ opioid receptor (κ) (cloned in house) were prepared by lysing cells in ice cold hypotonic buffer (2.5 mM MgCl2, 50 mM HEPES, pH 7.4) (10 mL/10 cm dish) followed by homogenization with a tissue grinder/Teflon pestle. Membranes were collected by centrifugation at 30,000×g for 15 min at 4° C. and pellets were resuspended in hypotonic buffer to a final concentration of 1-3 mg/mL. Protein concentrations were determined using the BioRad protein assay reagent with bovine serum albumen as standard. Aliquots of κ receptor membranes were stored at […]

[5] = [3H]-diprenorphine displacement, read-out: Ki (nM) Opioid Receptor μ
[6] = κ membrane protein (in-house), read-out: GTPγS κ EC50
[7] = μ-receptor membranes, μM, read-out: GTPγS μ EC50
[8] = [3H]-U69,593 displacement, HEK-293 membranes, read-out: Ki (nM) Opioid Receptor κ
[9] = μ-receptor membranes, read-out: GTPγS μ EC50

SMILES	Ki (μ-opioid receptor [1]; [5])	Emax (κ opioid receptor [2])	EC50 (κ opioid receptor [2]; [6])	EC50 (μ-opioid receptor [3]; [7])	Ki (κ opioid receptor [4]; [8])	Ki (μ-opioid receptor [1])	EC50 (κ opioid receptor [2])	EC50 (μ-opioid receptor [3])	Ki (κ opioid receptor [4])	Emax (μ-opioid receptor [3])	EC50 (μ-opioid receptor [3]; [9])	EC50 (κ opioid receptor [2]; κ membrane protein (in-house), μM, read-out: GTPγS κ EC50)	Ki (κ opioid receptor [4]; [3H]-U69,593 displacement, μM, read-out: Ki Opioid Receptor κ)
C[C@H](NC(=O)C[C@@]12CCN(CC3CC3)C(Cc3ccc(O)cc31)[C@@H]2C)C(N)=O [Compound 1, (2S)-2-(2-((6R,11R)-3-(cyclopropylmethyl)-8-hydroxy-11-methyl-1,2,3,4,5,6-hexahydro-2,6-methanobenzo[d]azocin-6-yl)acetamido)propanamide]	31.7 ± 6.24 nM	31.3%	0.00891 µM	> 20 µM	1.48 ± 0.27 nM								
C[C@H]1C2Cc3ccc(O)cc3[C@@]1(CCCC(N)=O)CCN2CC1CC1 [Compound 2, 4-((6S,11R)-3-(cyclopropylmethyl)-8-hydroxy-11-methyl-1,2,3,4,5,6-hexahydro-2,6-methanobenzo[d]azocin-6-yl)butanamide]	10.7 ± 1.82 nM	67.3%	0.00898 µM	> 20 µM	0.49 ± 0.11 nM								
COc1ccc2c(c1)[C@@]1(CCCC(=O)O)CCN(CC3CC3)C(C2)[C@@H]1C [Compound 3, 4-((6S,11R)-3-(cyclopropylmethyl)-8-methoxy-11-methyl-1,2,3,4,5,6-hexahydro-2,6-methanobenzo[d]azocin-6-yl)butanoic acid]	1110 ± 32.6 nM	80.7%	3.47 µM	> 20 µM	137 ± 41.9 nM								
C[C@H]1C2Cc3ccc(O)cc3[C@@]1(CCCC(=O)O)CCN2CC1CC1 [Compound 4, 4-((6S,11R)-3-(cyclopropylmethyl)-8-hydroxy-11-methyl-1,2,3,4,5,6-hexahydro-2,6-methanobenzo[d]azocin-6-yl)butanoic acid]	7.61 ± 2.44 nM	67.3%	0.0248 µM	> 20 µM	2.52 ± 0.23 nM								
COc1ccc2c(c1)[C@@]1(CC(=O)O)CCN(CC3CC3)C(C2)[C@@H]1C [Compound 5, 2-((6R,11R)-3-(cyclopropylmethyl)-8-methoxy-11-methyl-1,2,3,4,5,6-hexahydro-2,6-methanobenzo[d]azocin-6-yl)acetic acid]				> 20 µM	4460 ± 1850 nM								
COc1ccc2c(c1)[C@@]1(C[C@H](O)CO)CCN(CC3CC3)C(C2)[C@@H]1C [Compound 6, (2S)-3-((6R,11R)-3-(cyclopropylmethyl)-8-methoxy-11-methyl-1,2,3,4,5,6-hexahydro-2,6-methanobenzo[d]azocin-6-yl)propane-1,2-diol]		69.3%				3340 ± 895 nM	3.09 µM	> 20 µM	46.4 ± 9.7 nM				
COc1ccc2c(c1)[C@@]1(CC(=O)N[C@@H](C)C(N)=O)CCN(CC3CC3)C(C2)[C@@H]1C [Compound 7, (2S)-2-(2-((6R,11R)-3-(cyclopropylmethyl)-8-methoxy-11-methyl-1,2,3,4,5,6-hexahydro-2,6-methanobenzo[d]azocin-6-yl)acetamido)propanamide]		29.7%	5 µM	> 20 µM	193 ± 68.7 nM								
COC(=O)/C=C/C[C@@]12CCN(CC3CC3)C(Cc3ccc(OC)cc31)[C@@H]2C [Compound 8, (E)-methyl 4-((6S,11R)-3-(cyclopropylmethyl)-8-methoxy-11-methyl-1,2,3,4,5,6-hexahydro-2,6-methanobenzo[d]azocin-6-yl)but-2-enoate]	1810 ± 553 nM	99.3%	0.123 µM		3.21 ± 0.76 nM					46.3%	0.562 µM		
COc1ccc2c(c1)[C@@]1(CCC[C@@H](O)CO)CCN(CC3CC3)C(C2)[C@@H]1C [Compound 10, (2R)-5-((6S,11R)-3-(cyclopropylmethyl)-8-methoxy-11-methyl-1,2,3,4,5,6-hexahydro-2,6-methanobenzo[d]azocin-6-yl)pentane-1,2-diol]		95%				3090 ± 922 nM	0.0943 µM		6.68 ± 0.61 nM				
C[C@H]1[C@H]2Cc3ccc(O)cc3[C@]1(CCCC(N)=O)CCN2Cc1ccccc1 [Compound 19, 4-((2R,6R,11R)-3-benzyl-8-hydroxy-11-methyl-1,2,3,4,5,6-hexahydro-2,6-methanobenzo[d]azocin-6-yl)butanamide]	2.65 ± 0.36 nM									13.7%	0.0401 µM	> 20 µM	
COc1ccc2c(c1)[C@]1(CCNC(=O)c3cccc(C(=O)O)c3)CCN(CC3CC3)[C@H](C2)[C@@H]1C [Compound 24, 3-((2-((2R,6R,11R)-3-(cyclopropylmethyl)-8-methoxy-11-methyl-1,2,3,4,5,6-hexahydro-2,6-methanobenzo[d]azocin-6-yl)ethyl)carbamoyl)benzoic acid]		88.7%	0.664 µM		130 ± 26.5 nM					76.3%	0.251 µM		
COc1ccc2c(c1)[C@]1(CCNC(=O)c3ccc(C(=O)O)cc3)CCN(CC3CC3)[C@H](C2)[C@@H]1C [Compound 25, 4-((2-((2R,6R,11R)-3-(cyclopropylmethyl)-8-methoxy-11-methyl-1,2,3,4,5,6-hexahydro-2,6-methanobenzo[d]azocin-6-yl)ethyl)carbamoyl)benzoic acid]		69.3%	2.41 µM		479 ± 36.3 nM					104%	0.584 µM		
COc1ccc2c(c1)[C@]1(CCOc3ccc(C(=O)O)cc3)CCN(CC3CC3)[C@H](C2)[C@@H]1C [Compound 27, 4-(2-((2R,6S,11R)-3-(cyclopropylmethyl)-8-methoxy-11-methyl-1,2,3,4,5,6-hexahydro-2,6-methanobenzo[d]azocin-6-yl)ethoxy)benzoic acid]		88.3%	3.69 µM		330 ± 70.1 nM					94.7%	0.245 µM		
C[C@H]1[C@H]2Cc3ccc(O)cc3[C@]1(CCOc1ccc(C(=O)O)cc1)CCN2CC1CC1 [Compound 28, 4-(2-((2R,6S,11R)-3-(cyclopropylmethyl)-8-hydroxy-11-methyl-1,2,3,4,5,6-hexahydro-2,6-methanobenzo[d]azocin-6-yl)ethoxy)benzoic acid]		110%	0.0391 µM		5.75 ± 1.04 nM					86.3%	0.00592 µM		
COc1ccc2c(c1)[C@@]1(CC(=O)O)CCN(CC3CC3)[C@@H](C2)[C@H]1C [Compound 29, 2-((2S,6R,11S)-3-(cyclopropylmethyl)-8-methoxy-11-methyl-1,2,3,4,5,6-hexahydro-2,6-methanobenzo[d]azocin-6-yl)acetic acid]										24.8%	0.346 µM		> 20000 nM
C[C@H]1[C@H]2Cc3ccc(O)cc3[C@]1(CCNC(=O)CN(C)C)CCN2CC1CC1 [Compound 30, N-(2-((2R,6R,11R)-3-(cyclopropylmethyl)-8-hydroxy-11-methyl-1,2,3,4,5,6-hexahydro-2,6-methanobenzo[d]azocin-6-yl)ethyl)-2-(dimethylamino)acetamide]		96.5%	0.00177 µM		0.05 ± 0.02 nM					82.2%	0.00485 µM		
C[C@H]1[C@H]2Cc3ccc(O)cc3[C@@]1(CCNC(=O)CN)CCN2CC1CC1 [Compound 31]		90.3%	0.0012 µM		0.07 ± 0.01 nM					102%	0.00287 µM		

— patent publication US20180127374A1, “BE[…] AS OPIOID RECEPTORS MODULATORS” (Purdue Pharma L.P., priority 2012, published 2018)
